Target: Drp1 (Homo sapiens (Human), UniProt O00429)
Assay: Drp1 Activity Screen: colorimetric (malachite green) GTPase assay
Assay type: biochemical
Settings: 1 mM GTP, 20 min at 37° C.; for IC50: GTPase activity, 0.6 μM Drp1 preincubated with 0.1 mg/mL liposomes; for max % inh: max % inhibition of Drp1 GTPase activity, 0.6 μM Drp1, 0.1 mg/mL liposomes
Procedure: The GTPase activity of Drp1 was assayed using a colorimetric assay similar to as described previously by Leonard M. et al. “Robust colorimetric assays for dynamin's basal and stimulated GTPase activities.” Methods Enzymol. […] Briefly, for GTPase assays of purified Drp1 inhibitor samples, 0.6 μM Drp1 preincubated with 0.1 mg/mL liposomes (consisting of 80% soybean lipids/20% cardiolipin) and inhibitor was added to 1 mM GTP in a microtiter plate for 20 min at 37° C. in 4 mM MgCl2, 10 mM Hepes (pH 7.0), 100 mM KCl, 1 mM DTT. Reactions were stopped by diluting with 0.5 mM EDTA. Samples were then incubated with malachite green reagent (1 mM malachite green and 50 mM ammonium molybdate in 1 N HCl), and the absorbance at 650 nm was measured. The reaction rates, IC50 values, and max % inhibition were determined using Excel/GraphPad Prism software.

Sequence of Drp1 (O00429 whole entry): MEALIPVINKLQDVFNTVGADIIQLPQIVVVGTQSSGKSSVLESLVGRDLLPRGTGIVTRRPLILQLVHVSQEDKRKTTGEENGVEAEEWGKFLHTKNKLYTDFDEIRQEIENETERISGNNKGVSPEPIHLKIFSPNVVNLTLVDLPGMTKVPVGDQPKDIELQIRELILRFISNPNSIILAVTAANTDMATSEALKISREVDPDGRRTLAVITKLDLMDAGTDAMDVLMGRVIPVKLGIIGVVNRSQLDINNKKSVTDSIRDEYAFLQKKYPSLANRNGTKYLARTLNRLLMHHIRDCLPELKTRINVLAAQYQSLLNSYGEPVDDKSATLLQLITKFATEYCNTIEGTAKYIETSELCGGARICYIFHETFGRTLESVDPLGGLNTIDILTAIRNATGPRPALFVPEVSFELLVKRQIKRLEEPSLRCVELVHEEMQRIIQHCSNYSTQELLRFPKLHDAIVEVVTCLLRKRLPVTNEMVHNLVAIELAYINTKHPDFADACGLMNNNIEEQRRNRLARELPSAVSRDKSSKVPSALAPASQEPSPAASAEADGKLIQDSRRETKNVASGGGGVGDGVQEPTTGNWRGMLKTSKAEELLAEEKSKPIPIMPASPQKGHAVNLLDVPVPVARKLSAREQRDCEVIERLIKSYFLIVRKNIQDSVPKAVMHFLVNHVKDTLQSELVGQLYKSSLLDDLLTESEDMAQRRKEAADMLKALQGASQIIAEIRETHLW

Row | SMILES | IC50 | max % inh
1 | Cc1cc(C(=O)Nc2ccc(S(N)(=O)=O)cc2)n(Cc2csc(N3CCCCC3)n2)c1 [Compound A-8, 4-methyl-1-((2-(piperidin-1-yl)thiazol-4-yl)methyl)-N-(4-sulfamoylphenyl)-1H-pyrrole-2-carboxamide] | 2.5 µM | –
2 | CC(=O)NS(=O)(=O)c1ccc(NC(=O)c2cc(C)cn2Cc2csc(N3CCCCC3)n2)cc1 [Compound A-6, N-(4-(N-acetylsulfamoyl)phenyl)-4-methyl-1-((2-(piperidin-1-yl)thiazol-4-yl)methyl)-1H-pyrrole-2-carboxamide] | 5 µM | 71%
3 | Cc1cc(C(=O)NCc2ccccc2)n(Cc2csc(N3CCCCC3)n2)c1 [Compound A-3, N-benzyl-4-methyl-1-((2-(piperidin-1-yl)thiazol-4-yl)methyl)-1H-pyrrole-2-carboxamide] | 4.8 µM | 70%
4 | Cc1cc(C(=O)Nc2ccc(N3CCNC3=O)cc2)n(Cc2csc(N3CCCCC3)n2)c1 [Compound A-43, 4-methyl-N-(4-(2-oxoimidazolidin-1-yl)phenyl)-1-((2-(piperidin-1-yl)thiazol-4-yl)methyl)-1H-pyrrole-2-carboxamide] | 4.3 µM | –
5 | Cc1cc(C(=O)Nc2cc(F)c(O)c(F)c2)n(Cc2csc(N3CCCCC3)n2)c1 [Compound A-24, N-(3,5-difluoro-4-hydroxyphenyl)-4-methyl-1-((2-(piperidin-1-yl)thiazol-4-yl)methyl)-1H-pyrrole-2-carboxamide] | 21.8 µM | –
6 | Cc1cc(C(=O)Nc2cccnc2)n(Cc2csc(N3CCCCC3)n2)c1 [Compound A-31, 4-methyl-1-((2-(piperidin-1-yl)thiazol-4-yl)methyl)-N-(pyridin-3-yl)-1H-pyrrole-2-carboxamide] | 7.6 µM | –
7 | CC(=O)c1cc(C(=O)Nc2ccc(C(=O)O)cc2)n(Cc2csc(N3CCCCC3)n2)c1 [Compound A-56, 4-(4-acetyl-1-((2-(piperidin-1-yl)thiazol-4-yl)methyl)-1H-pyrrole-2-carboxamido)benzoic Acid] | > 100 µM | –
8 | Cc1cc(C(=O)NC2CCCOC2)n(Cc2csc(N3CCCCC3)n2)c1 (centres unmarked) [Compound A-27, 4-methyl-1-((2-(piperidin-1-yl)thiazol-4-yl)methyl)-N-(tetrahydro-2H-pyran-3-yl)-1H-pyrrole-2-carboxamide] | 9.6 µM | –
9 | Cc1cc(C(=O)Nc2ccc(C(=O)O)cc2)n(Cc2cccc(N3CCCCC3)n2)c1 [Compound A-16, 4-(4-methyl-1-((6-(piperidin-1-yl)pyridin-2-yl)methyl)-1H-pyrrole-2-carboxamido)benzoic Acid] | 1.7 µM | –
10 | Cc1cc(C(=O)Nc2ccc(-c3ccc(C(=O)O)cc3)cc2)n(Cc2csc(N3CCCCC3)n2)c1 [Compound A-71, 4′-(4-methyl-1-((2-(piperidin-1-yl)thiazol-4-yl)methyl)-1H-pyrrole-2-carboxamido)-[1,1′-biphenyl]-4-carboxylic Acid] | 0.72 µM | 83%
11 | Cc1cc(C(=O)Nc2ccncc2)n(Cc2csc(N3CCCCC3)n2)c1 [Compound A-32, 4-methyl-1-((2-(piperidin-1-yl)thiazol-4-yl)methyl)-N-(pyridin-4-yl)-1H-pyrrole-2-carboxamide] | 10.3 µM | –

Source: patent US11168080B2, “Dynamin-1-like protein inhibitors” (Mitobridge, Inc., priority 2017, dated 2021)
